Consider 17 compounds from US20230278995A1, “1,3,4-OXADIAZOLE DERIVATIVE COMPOUNDS AS HISTONE DEACETYLASE 6 INHIBITOR, AND THE PHARMACEUTICAL COMPOSITION COMPRISING THE SAME” (CHONG KUN DANG PHARMACEUTICAL CORP., priority 2020, published 2023).

In one experiment the target is T1, human recombinant HDAC6 (Homo sapiens, UniProt Q9UBN7).
T1 construct: purchased Calbiochem Inc. 382180
T1 sequence (Q9UBN7 1-1215): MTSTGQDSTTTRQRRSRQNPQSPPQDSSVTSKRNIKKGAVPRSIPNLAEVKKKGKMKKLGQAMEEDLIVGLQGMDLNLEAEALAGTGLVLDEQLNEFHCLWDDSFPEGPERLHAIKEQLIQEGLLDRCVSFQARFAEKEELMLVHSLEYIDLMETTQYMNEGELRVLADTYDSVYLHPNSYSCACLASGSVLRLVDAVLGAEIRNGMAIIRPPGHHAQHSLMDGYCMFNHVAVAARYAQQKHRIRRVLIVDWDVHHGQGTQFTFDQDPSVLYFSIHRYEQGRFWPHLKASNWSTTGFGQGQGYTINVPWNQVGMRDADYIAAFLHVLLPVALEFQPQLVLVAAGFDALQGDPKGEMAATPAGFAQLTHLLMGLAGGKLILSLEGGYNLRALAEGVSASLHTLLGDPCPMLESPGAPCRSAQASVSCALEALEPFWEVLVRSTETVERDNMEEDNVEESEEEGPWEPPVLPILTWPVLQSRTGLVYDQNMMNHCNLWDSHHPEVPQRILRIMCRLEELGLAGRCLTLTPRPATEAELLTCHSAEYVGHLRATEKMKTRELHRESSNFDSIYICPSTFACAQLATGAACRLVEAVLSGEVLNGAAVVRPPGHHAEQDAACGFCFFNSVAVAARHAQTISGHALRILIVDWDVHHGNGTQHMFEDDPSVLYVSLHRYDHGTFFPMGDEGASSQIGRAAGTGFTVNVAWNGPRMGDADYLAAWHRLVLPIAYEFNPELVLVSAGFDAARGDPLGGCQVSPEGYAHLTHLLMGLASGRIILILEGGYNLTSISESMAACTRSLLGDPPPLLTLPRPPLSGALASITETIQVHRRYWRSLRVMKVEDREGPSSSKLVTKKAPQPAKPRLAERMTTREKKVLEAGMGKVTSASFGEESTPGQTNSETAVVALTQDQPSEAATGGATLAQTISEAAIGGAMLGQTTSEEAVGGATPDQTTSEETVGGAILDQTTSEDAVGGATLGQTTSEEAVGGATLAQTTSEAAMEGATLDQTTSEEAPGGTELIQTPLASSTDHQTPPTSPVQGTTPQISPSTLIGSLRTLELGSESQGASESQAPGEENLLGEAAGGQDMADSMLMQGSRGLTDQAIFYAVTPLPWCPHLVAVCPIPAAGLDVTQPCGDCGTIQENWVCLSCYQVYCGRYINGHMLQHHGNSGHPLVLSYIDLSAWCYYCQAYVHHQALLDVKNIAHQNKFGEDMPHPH
In words: HDAC enzyme activity inhibition assay (HDAC Fluorimetric Drug Discovery Kit), HDAC6. Format: biochemical. The settings on record: for HDAC6 selectivity (fold): HDAC1 vs HDAC6; for IC50: human recombinant HDAC6, same protocol as HDAC1. The protocol:
(§1) For the HDAC1 enzyme activity test, human recombinant HDAC1 (BML-SE456) was used as an enzyme source and Fluor de Lys©-SIRT1 (BNL-K1177) was used as a substrate. After dispensing 5-fold diluted compounds into a 96-well plate, 0.3 μg of enzyme and 10 μM substrate were added to each well of the plate and allowed to react at 30° C. for 60 minutes. Next, Fluor de Lys© Developer II (BML-K1176) was added and reacted for 30 minutes to complete the reaction, and then the fluorescence values (Ex 360, Em 460) were measured using a multi-plate reader (Flexstation 3, Molecular Device). The HDAC6 enzymes were tested using human recombinant HDAC6 (382180) from Calbiochem Inc., according to the same protocol as the HDAC1 enzyme activity test method. With respect to the final result values, respective IC50 values were calculated using GraphPad Prism 4.0 program (Table 2).

In another experiment the target is T2, human recombinant HDAC1 (Homo sapiens, UniProt Q13547).
T2 construct: purchased Enzo Life Sciences, Inc. BML-SE456
In words: HDAC enzyme activity inhibition assay (HDAC Fluorimetric Drug Discovery Kit), HDAC1. Format: biochemical. The settings on record: human recombinant HDAC1, Fluor de Lys-SIRT1 substrate, 30° C. 60 minutes. The protocol: as §1

T2 sequence (Q13547 whole entry): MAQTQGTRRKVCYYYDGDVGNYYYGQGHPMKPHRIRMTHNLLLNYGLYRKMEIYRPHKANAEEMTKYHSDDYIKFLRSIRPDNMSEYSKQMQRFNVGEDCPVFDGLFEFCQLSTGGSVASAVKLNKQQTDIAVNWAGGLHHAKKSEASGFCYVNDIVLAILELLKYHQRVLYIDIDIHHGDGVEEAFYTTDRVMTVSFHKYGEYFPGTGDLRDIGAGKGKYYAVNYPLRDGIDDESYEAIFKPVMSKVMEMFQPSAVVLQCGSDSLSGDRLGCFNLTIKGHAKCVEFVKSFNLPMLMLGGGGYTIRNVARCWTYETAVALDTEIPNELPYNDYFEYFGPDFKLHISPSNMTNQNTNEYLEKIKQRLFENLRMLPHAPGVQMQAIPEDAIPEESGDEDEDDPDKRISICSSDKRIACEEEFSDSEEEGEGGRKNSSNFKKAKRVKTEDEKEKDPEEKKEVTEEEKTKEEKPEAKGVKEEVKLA

The IC50 is the concentration at which inhibition is half-maximal. For `O=C(N(Cc1ccc(-c2nnc(C(F)F)o2)cn1)c1ccccc1)C1(F)CCN(C2CC3(COC3)C2)CC1` [Compound 2995, N-((5-(5-(difluoromethyl)-1,3,4-oxadiazol-2-yl)pyridin-2-yl)methyl)-4-fluoro-N-phenyl-1-(2-oxaspiro[3.3]heptan-6-yl)piperidine-4-carboxamide], at human recombinant HDAC6, the “HDAC6 selectivity (fold)” value was determined as 600 fold and the IC50 was 83.3 nM. Further, the IC50 at human recombinant HDAC1 was above 50000 nM.

For the compound `O=C(N(Cc1ccc(-c2nnc(C(F)F)o2)cn1)c1ccccc1)C1(F)CCN(C2CCCC2)CC1` [Compound 2996, 1-cyclopentyl-N-((5-(5-(difluoromethyl)-1,3,4-oxadiazol-2-yl)pyridin-2-yl)methyl)-4-fluoro-N-phenylpiperidine-4-carboxamide], at human recombinant HDAC6, the “HDAC6 selectivity (fold)” value stood at 443 fold and the IC50 was 56.1 nM. The IC50 at human recombinant HDAC1 is 24900 nM.

As to `O=C(N(Cc1ccc(-c2nnc(C(F)F)o2)cn1)c1ccccc1)C1(F)CN(C2CCCCC2)C1` [Compound 2999, 1-cyclohexyl-N-((5-(5-(difluoromethyl)-1,3,4-oxadiazol-2-yl)pyridin-2-yl)methyl)-3-fluoro-N-phenylazetidine-3-carboxamide], on human recombinant HDAC6, the “HDAC6 selectivity (fold)” value is 801 fold and the concentration for half-maximal inhibition (IC50) was 62.4 nM. In addition, the IC50 on human recombinant HDAC1 is above 50000 nM.

Regarding `O=C(N(Cc1ccc(-c2nnc(C(F)F)o2)cn1)c1ccccc1)C1(F)CN(C2CCOCC2)C1` [Compound 3000, N-((5-(5-(difluoromethyl)-1,3,4-oxadiazol-2-yl)pyridin-2-yl)methyl)-3-fluoro-N-phenyl-1-(tetrahydro-2H-pyran-4-yl)azetidine-3-carboxamide], on human recombinant HDAC6, the “HDAC6 selectivity (fold)” value is listed as 1,157 fold and the IC50 is 43.2 nM. Also, the IC50 at human recombinant HDAC1 was above 50000 nM.

On to `CCN1CC(F)(C(=O)N(Cc2ccc(-c3nnc(C(F)F)o3)cn2)c2ccccc2)C1` [Compound 3001, N-((5-(5-(difluoromethyl)-1,3,4-oxadiazol-2-yl)pyridin-2-yl)methyl)-1-ethyl-3-fluoro-N-phenylazetidine-3-carboxamide], for which, on human recombinant HDAC6, the “HDAC6 selectivity (fold)” value is given as 1,000 fold and the IC50 is 50 nM. The IC50 on human recombinant HDAC1 was above 50000 nM.

In the case of `CCCN1CC(F)(C(=O)N(Cc2ccc(-c3nnc(C(F)F)o3)cn2)c2ccccc2)C1` [Compound 3002, N-((5-(5-(difluoromethyl)-1,3,4-oxadiazol-2-yl)pyridin-2-yl)methyl)-3-fluoro-N-phenyl-1-propylazetidine-3-carboxamide], on human recombinant HDAC6, the “HDAC6 selectivity (fold)” value is 943 fold and the IC50 is 53 nM. For the same compound, the IC50 on human recombinant HDAC1 is above 50000 nM.

`CCCCN1CC(F)(C(=O)N(Cc2ccc(-c3nnc(C(F)F)o3)cn2)c2ccccc2)C1` [Compound 3003, 1-butyl-N-((5-(5-(difluoromethyl)-1,3,4-oxadiazol-2-yl)pyridin-2-yl)methyl)-3-fluoro-N-phenylazetidine-3-carboxamide]: on human recombinant HDAC6, the “HDAC6 selectivity (fold)” value turned out to be 735 fold. The half-maximal inhibitory concentration (IC50) worked out at 37.4 nM on human recombinant HDAC6 and 27500 nM on human recombinant HDAC1.

With `CC(C)CN1CC(F)(C(=O)N(Cc2ccc(-c3nnc(C(F)F)o3)cn2)c2ccccc2)C1` [Compound 3004, N-((5-(5-(difluoromethyl)-1,3,4-oxadiazol-2-yl)pyridin-2-yl)methyl)-3-fluoro-1-isobutyl-N-phenylazetidine-3-carboxamide], on human recombinant HDAC6, the “HDAC6 selectivity (fold)” value is 917 fold. Further, the IC50 at human recombinant HDAC6 was found to be 28.4 nM; on human recombinant HDAC1, 26100 nM.

For the compound `CN(C)CCC(=O)N1CC(F)(C(=O)N(Cc2ccc(-c3nnc(C(F)F)o3)cn2)c2ccccc2)C1` [Compound 3006, N-((5-(5-(difluoromethyl)-1,3,4-oxadiazol-2-yl)pyridin-2-yl)methyl)-1-(3-(dimethylamino)propanoyl)-3-fluoro-N-phenylazetidine-3-carboxamide], at human recombinant HDAC6, the “HDAC6 selectivity (fold)” value is listed as 2,032 fold and the IC50 amounted to 24.6 nM. The IC50 on human recombinant HDAC1 is above 50000 nM.

Take `CN(C)CCCC(=O)N1CC(F)(C(=O)N(Cc2ccc(-c3nnc(C(F)F)o3)cn2)c2ccccc2)C1` [Compound 3007, N-((5-(5-(difluoromethyl)-1,3,4-oxadiazol-2-yl)pyridin-2-yl)methyl)-1-(4-(dimethylamino)butanoyl)-3-fluoro-N-phenylazetidine-3-carboxamide]: at human recombinant HDAC6, the “HDAC6 selectivity (fold)” value is 1,945 fold and the IC50 turned out to be 25.7 nM. Moreover, on human recombinant HDAC1, the concentration for half-maximal inhibition (IC50) is above 50000 nM.

On to `CN1CC(F)(C(=O)N(Cc2ccc(-c3nnc(C(F)F)o3)cn2)c2cccc(F)c2)C1` [Compound 3047, N-((5-(5-(difluoromethyl)-1,3,4-oxadiazol-2-yl)pyridin-2-yl)methyl)-3-fluoro-N-(3-fluorophenyl)-1-methylazetidine-3-carboxamide], for which, on human recombinant HDAC6, the “HDAC6 selectivity (fold)” value came out at 242 fold and the IC50 was 85.7 nM. For the same compound, the IC50 on human recombinant HDAC1 is 20800 nM.

For `CC(C)N1CC(F)(C(=O)N(Cc2ccc(-c3nnc(C(F)F)o3)cn2)c2cccc(F)c2)C1` [Compound 3048, N-((5-(5-(difluoromethyl)-1,3,4-oxadiazol-2-yl)pyridin-2-yl)methyl)-3-fluoro-N-(3-fluorophenyl)-1-isopropylazetidine-3-carboxamide], the “HDAC6 selectivity (fold)” value at human recombinant HDAC6 was determined as 237 fold. Further, the IC50 on human recombinant HDAC6 is 78 nM; on human recombinant HDAC1, 18500 nM.

Take `O=C(N(Cc1ccc(-c2nnc(C(F)F)o2)cn1)c1cccc(F)c1)C1(F)CN(C2CCC2)C1` [Compound 3049, 1-cyclobutyl-N-((5-(5-(difluoromethyl)-1,3,4-oxadiazol-2-yl)pyridin-2-yl)methyl)-3-fluoro-N-(3-fluorophenyl)azetidine-3-carboxamide]: the “HDAC6 selectivity (fold)” value on human recombinant HDAC6 amounted to 392 fold. In addition, the IC50 on human recombinant HDAC6 turned out to be 55 nM; at human recombinant HDAC1, 21600 nM.

As to `O=C(N(Cc1ccc(-c2nnc(C(F)F)o2)cn1)c1cccc(F)c1)C1(F)CN(C2COC2)C1` [Compound 3050, N-((5-(5-(difluoromethyl)-1,3,4-oxadiazol-2-yl)pyridin-2-yl)meth 1)-3-fluoro-N-(3-fluorophenyl)-1-(oxetan-3-yl)azetidine-3-carboxamide], at human recombinant HDAC6, the “HDAC6 selectivity (fold)” value was 683 fold. The IC50 at human recombinant HDAC6 was 73.2 nM; on human recombinant HDAC1, above 50000 nM.

Consider `O=C(N(Cc1ccc(-c2nnc(C(F)F)o2)cn1)c1cccc(F)c1)C1(F)CN(C2CCOC2)C1` (stereo not drawn) [Compound 3052, N-((5-(5-(difluoromethyl)-1,3,4-oxadiazol-2-yl)pyridin-2-yl)methyl)-3-fluoro-N-(3-fluorophenyl)-1-(tetrahydrofuran-3-yl)azetidine-3-carboxamide], for which, at human recombinant HDAC6, the “HDAC6 selectivity (fold)” value was 854 fold and the IC50 is 58.5 nM. Further, the IC50 at human recombinant HDAC1 is above 50000 nM.

For the compound `O=C(N(Cc1ccc(-c2nnc(C(F)F)o2)cn1)c1cccc(F)c1)C1(F)CN(C2CCCCC2)C1` [Compound 3053, 1-cyclohexyl-N-((5-(5-(difluoromethyl)-1,3,4-oxadiazol-2-yl)pyridin-2-yl)methyl)-3-fluoro-N-(3-fluorophenyl)azetidine-3-carboxamide], at human recombinant HDAC6, the “HDAC6 selectivity (fold)” value is reported as 668 fold. Besides, the IC50 on human recombinant HDAC6 was 74.8 nM; on human recombinant HDAC1, above 50000 nM.

As for `CCN1CC(F)(C(=O)N(Cc2ccc(-c3nnc(C(F)F)o3)cn2)c2cccc(F)c2)C1` [Compound 3090, N-((5-(5-(difluoromethyl)-1,3,4-oxadiazol-2-yl)pyridin-2-yl)methyl)-1-ethyl-3-fluoro-N-(3-fluorophenyl)azetidine-3-carboxamide], the “HDAC6 selectivity (fold)” value on human recombinant HDAC6 is listed as 2,212 fold. Moreover, the values for the IC50 on human recombinant HDAC6 and on human recombinant HDAC1 were 22.6 nM and above 50000 nM, respectively.
